# Source: patent US20260107957A1, “USE OF AN EMULSIFIER DERIVED FROM RICINOLEIC ACID TO INCREASE THE ABSORPTION OF CALCIUM AND PHOSPHORUS IN THE DIGESTIVE TRACT OF FARM ANIMALS” (priority 2023, published 2026)
# System: laying hens
# Experiment: Assessment of shell quality in laying hen farms
# Type: in vivo
# Details: egg production
# Description: In order to assess the effect of the use of the nutritional supplement on the calcium and phosphorus absorption in laying hens, several studies on laying hens from different farms were carried out. The studies comprised the analysis of animals before and after the feed with the formulation containing the nutritional supplement comprising ingredients shown in Table 3.
# More specifically, an assessment of the shell quality in laying hens was conducted by collecting the eggs before and after feeding the animals with the formulation containing the nutritional supplement. Hens from farms in the states of Espírito Santo (350,000 hens), São Paulo (2,000,000 hens), Paraná (1,100,000 hens), and Minas Gerais ([…]) were fed with a pair of feed formulas, one without and another one with the nutritional supplement of the present invention.
# Laid eggs were collected after feeding the hens with regular feed and later with the feed containing the emulsifier of the present invention. Data obtained from the analysis of the eggs from the farms in Espírito Santo, São Paulo, Paraná, and Minas Gerais are included in Tables 6 to 9 below, the beneficial effects on the shells being emphasized thereof, among them the reduction in cracks in chicken eggs.
smiles,measurement,setting,value
"CCCCCC[C@@H](O)C/C=C\CCCCCCCC(=O)[O-].[Na+] [emulsifier derived from ricinoleic acid, Sodium Ricinolate]",increase of the amount of saleable eggs,,up to 5%
same,eggs produced daily lost by shell problems,usual loss up to 7%,below 2%
